{
  "source": "patent US10894798B2",
  "about": "“Substituted dihydropyrrolopyrazole derivative” (UBE INDUSTRIES, LTD., priority 2015, dated 2021)",
  "key": {"[1]": {"system": "human large intestine cancer cell line HCT-116", "test": "In vitro cell growth inhibitory activity against human large intestine cancer line by combined use with chemotherapeutic", "assay_type": "cell-based", "conditions": "HCT-116, 3 days, single-agent treatment", "description": "A human large intestine cancer cell line HCT-116 (obtained from DS Pharma Biomedical Co., Ltd.) was cultured in a McCoy's 5A medium (manufactured by Thermo Fisher Scientific, Inc.) containing 10% fetal bovine serum (FBS) (manufactured by Thermo Fisher Scientific, Inc.) and 1% penicillin/streptomycin/amphotericin B (manufactured by Thermo Fisher Scientific, Inc.) and inoculated at 0.5 to 2.0×10^3 cells/well to a 96-well plate. The cells were cultured overnight in a carbon dioxide incubator of 37° C. containing 5% carbon dioxide. The medium was replaced with a fresh medium on the next day, and then, a mixed solution of a DMSO solution of a test compound (IV-361, 5-FU or SN-38) with varying concentrations and a cell culture medium (final DMSO concentration: 0.2%) was added thereto. The concentration of the test compound was 10 nM, the concentration of 5-FU (manufactured by Wako Pure Chemical Industries, Ltd.) was 1000 nM, and the concentration of SN-38 (manufactured by Tocris Bioscience) was adjusted to 1 nM to carry out the test. For a control group, a mixed solution of DMSO and a cell culture medium (final DMSO concentration: 0.2%) was used instead of the DMSO solution of the test compound.\nAfter the addition of the DMSO solution of the test compound, the cells were cultured for 3 days in a carbon dioxide incubator. Then, the absorbance (measurement wavelength: 565 nm) of the medium in each group was measured by using In Vitro Toxicology Assay Kit Sulforhodamine B based (manufactured by Sigma-Aldrich Co. LLC.).\nThe rate of inhibition of growth (%) was calculated according to the expression given below. Specifically, in the case where the difference between the average absorbance before culture (day 0) and the average absorbance after culture in the test compound-administered group is the same as the difference between the average absorbance before culture (day 0) and the average absorbance after culture in the control group, the rate of inhibition of cell growth is 0%. Rate of inhibition of growth=(1−((Average absorbance of the test compound-administered group after culture)−(Average absorbance of the test compound-administered group on day 0))/((Average absorbance of the control group after culture)−(Average absorbance of the control group on day 0)))×100"}, "[2]": {"system": "human large intestine cancer cell line (HCT-116) tumor", "test": "In vivo tumor growth inhibition test for human large intestine cancer cell line by combined use with chemotherapeutic", "conditions": "alone", "method": "The prepared cell suspension was subcutaneously injected at 0.1 mL/mouse to the right abdomens of female BALB nude mice (supplied by Charles River Laboratories Japan, Inc.).\nIndividuals whose tumor volume was within the range of 50 to 200 mm^3 were selected and grouped such that the tumor volume was almost equivalent. After the grouping, a test compound or only a solvent was administered in a repeated manner to the mice of each group as follows:\nSingle-agent administration group:\nControl group: solvent (administered once a day)\n5-FU, oxaliplatin, and irinotecan were intraperitoneally administered (5 mL/kg).\nAfter a lapse of a predetermined period, the body weights of the mice of each group and the long diameter and short diameter of tumor were measured, and the tumor volume of the test compound-administered group with respect to the tumor volume of the control group was calculated as the rate of suppression of tumor volume (%)."}, "[3]": {"system": "human large intestine cancer cell line (HCT-116)", "test": "Human large intestine cancer (HCT-116) cell growth inhibition test", "assay_type": "cell-based", "conditions": "HCT-116 (row of Table 50), read-out: GI50 value (concentration necessary for inhibiting 50% of cell growth)", "procedure,_shortened": "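HCT-116 cells were seeded at 0.5 to 2.0×10^3 cells/well in McCoy's 5A with 10% FBS and dosed with compound at 0.1% final DMSO after overnight culture. Growth was measured by sulforhodamine B absorbance after 3 days. GI50 was calculated from the inhibition rate at each concentration.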"}, "[4]": {"system": "breast cancer cell line BT-549", "test": "Various human cancer cell growth inhibition test: BT-549", "assay_type": "cell-based", "conditions": "ATPlite, read-out: GI50 value (concentration necessary for inhibiting 50% of cell growth)", "text": "(§1) A breast cancer cell line BT-549 (obtained from American Type Culture Collection (ATCC)), a uterus cancer cell line C-33A (obtained from ATCC), an ovary cancer cell line PA-1 (obtained from ATCC), a large-cell lung cancer cell line NCI-H460 (obtained from ATCC), a small-cell lung cancer cell line NCI-H82 (obtained from ATCC), a kidney cancer cell line ACHN (obtained from ATCC), a pancreatic cancer cell line BxPC-3 (obtained from ATCC), a malignant melanoma cell line A375 (obtained from ATCC), a throat cancer cell line FaDu (obtained from ATCC), a medulloblastoma cell line Daoy (obtained from ATCC), a cutaneous epithelioid sarcoma cell line VA-ES-BJ (obtained from ATCC), a rhabdomyosarcoma cell line A-204 (obtained from ATCC), a prostate cancer cell line DU145 (obtained from ATCC), a bladder cancer cell line T24 (obtained from ATCC), a lymphoma cell line SR (obtained from ATCC), a neuroblastoma cell line SH-SY5Y (obtained from DS Pharma Biomedical Co., Ltd.), a liver cancer cell line HepG2 (obtained from DS Pharma Biomedical Co., Ltd.), a stomach cancer cell line HGC-27 (obtained from DS Pharma Biomedical Co., Ltd.), and a multiple myeloma cell line NCI-H929 (obtained from DS Pharma Biomedical Co., Ltd.) were used as human cancer cell lines.\n(§2) Each cell line was cultured in a cell culture medium recommended by ATCC or DS Pharma Biomedical Co., Ltd. and inoculated at 0.3 to 5.0×10^3 cells/well to a 96-well plate. The cells were cultured overnight in a carbon dioxide incubator of 37° C. containing 5% carbon dioxide. The medium was replaced with a fresh medium on the next day, then replaced with a mixed solution of a DMSO solution of a test compound with varying concentrations and a culture medium (final DMSO concentration: 0.1%), and left standing in a carbon dioxide incubator (day 0). IV-361, IV-379, IV-3, IV-215, IV-299, IV-669, IV-1049, and palbociclib (for comparison) were used as test compounds. For a control group, DMSO was added instead of the DMSO solution of the test compound to a cell culture medium (final DMSO concentration: 0.1%).\n(§3) After culture for a predetermined period, the ATP activity of BT-549, C-33A, PA-1, NCI-H460, NCI-H82, ACHN, BxPC-3, A375, FaDu, Daoy, VA-ES-BJ, A-204, DU145, T24, and SR was measured by using ATPlite (manufactured by PerkinElmer, Inc.). The ATP activity of SH-SY5Y, HepG2, HGC-27, and NCI-H929 was measured by using CellTiter-Glo (manufactured by Promega Corp.).\n(§4) The rate of inhibition of cell growth (%) was calculated according to the expression given below. Specifically, in the case where the difference between the ATP activity before culture (day 0) and the ATP activity after culture in the test compound-administered group is the same as the difference between the ATP activity before culture (day 0) and the ATP activity after culture in the control group, the rate of inhibition of cell growth is 0%. Rate of inhibition of cell growth=(1−((ATP activity of the test compound-administered group after culture)−(ATP activity of the test compound-administered group on day 0))/((ATP activity of the control group after culture)−(ATP activity of the control group on day 0)))×100\n(§5) The concentration of the test compound necessary for inhibiting 50% of cell growth (GI50 value) was calculated by using EXSUS (version 8.1.0, manufactured by CAC Exicare Corp.)."}, "[5]": {"system": "uterus cancer cell line C-33A", "test": "Various human cancer cell growth inhibition test: C-33A", "assay_type": "cell-based", "conditions": "ATPlite, read-out: GI50 value (concentration necessary for inhibiting 50% of cell growth)", "text": "as §1, §2, §3, §4, §5"}, "[6]": {"system": "ovary cancer cell line PA-1", "test": "Various human cancer cell growth inhibition test: PA-1", "assay_type": "cell-based", "conditions": "ATPlite, read-out: GI50 value (concentration necessary for inhibiting 50% of cell growth)", "text": "as §1, §2, §3, §4, §5"}, "[7]": {"system": "large-cell lung cancer cell line NCI-H460", "test": "Various human cancer cell growth inhibition test: NCI-H460", "assay_type": "cell-based", "conditions": "ATPlite, read-out: GI50 value (concentration necessary for inhibiting 50% of cell growth)", "text": "as §1, §2, §3, §4, §5"}, "[8]": {"system": "small-cell lung cancer cell line NCI-H82", "test": "Various human cancer cell growth inhibition test: NCI-H82", "assay_type": "cell-based", "conditions": "ATPlite, read-out: GI50 value (concentration necessary for inhibiting 50% of cell growth)", "text": "as §1, §2, §3, §4, §5"}, "[9]": {"system": "kidney cancer cell line ACHN", "test": "Various human cancer cell growth inhibition test: ACHN", "assay_type": "cell-based", "conditions": "ATPlite, read-out: GI50 value (concentration necessary for inhibiting 50% of cell growth)", "text": "as §1, §2, §3, §4, §5"}, "[10]": {"system": "pancreatic cancer cell line BxPC-3", "test": "Various human cancer cell growth inhibition test: BxPC-3", "assay_type": "cell-based", "conditions": "ATPlite, read-out: GI50 value (concentration necessary for inhibiting 50% of cell growth)", "text": "as §1, §2, §3, §4, §5"}, "[11]": {"system": "malignant melanoma cell line A375", "test": "Various human cancer cell growth inhibition test: A375", "assay_type": "cell-based", "conditions": "A-375, ATPlite, read-out: GI50 value (concentration necessary for inhibiting 50% of cell growth)", "text": "as §1, §2, §3, §4, §5"}, "[12]": {"system": "throat cancer cell line FaDu", "test": "Various human cancer cell growth inhibition test: FaDu", "assay_type": "cell-based", "conditions": "ATPlite, read-out: GI50 value (concentration necessary for inhibiting 50% of cell growth)", "text": "as §1, §2, §3, §4, §5"}, "[13]": {"system": "rhabdomyosarcoma cell line A-204", "test": "Various human cancer cell growth inhibition test: A-204", "assay_type": "cell-based", "conditions": "A204, ATPlite, read-out: GI50 value (concentration necessary for inhibiting 50% of cell growth)", "text": "as §1, §2, §3, §4, §5"}, "lymphoma cell line SR": {"system": "lymphoma cell line SR", "test": "Various human cancer cell growth inhibition test: SR", "assay_type": "cell-based", "conditions": "ATPlite, read-out: GI50 value (concentration necessary for inhibiting 50% of cell growth)", "text": "as §1, §2, §3, §4, §5"}},
  "data": [
    {"smiles": "O=c1[nH]cc(F)c(=O)[nH]1", "note": "[5-FU, 5-Fluorouracil, reference compound]", "values": [
      {"measurement": "inhibition at 1 µM", "setting": "[1]; Homo sapiens, 72 h, 5-FU 1000 nM, read-out: Rate of inhibition of growth (%)", "result": 25, "unit": "%"},
      {"measurement": "Rate of suppression of tumor volume", "setting": "[2]; Table 52, 5-FU 15 mg/kg/day intraperitoneal", "result": 21, "unit": "%"}
    ]},
    {"smiles": "O=C1[O][Pt]2([NH][C@@H]3CCCC[C@H]3[NH]2)[O]C1=O", "note": "[Oxaliplatin, oxaliplatin, reference compound]", "values": [
      {"measurement": "Rate of suppression of tumor volume", "setting": "[2]; Table 53, oxaliplatin 3 mg/kg/day intraperitoneal", "result": 44, "unit": "%"}
    ]},
    {"smiles": "CC(=O)c1c(C)c2cnc(Nc3ccc(N4CCNCC4)cn3)nc2n(C2CCCC2)c1=O", "note": "[Palbociclib, palbociclib, reference compound]", "values": [
      {"measurement": "GI50", "setting": "[3]", "result": "300 to 1000", "unit": "nM"},
      {"measurement": "GI50", "setting": "[4]", "result": "≥ 1000", "unit": "nM"},
      {"measurement": "GI50", "setting": "[5]", "result": "≥ 1000", "unit": "nM"},
      {"measurement": "GI50", "setting": "[6]", "result": "< 300", "unit": "nM"},
      {"measurement": "GI50", "setting": "[7]", "result": "< 300", "unit": "nM"},
      {"measurement": "GI50", "setting": "[8]", "result": "≥ 1000", "unit": "nM"},
      {"measurement": "GI50", "setting": "[9]", "result": "< 300", "unit": "nM"},
      {"measurement": "GI50", "setting": "[10]", "result": "< 300", "unit": "nM"},
      {"measurement": "GI50", "setting": "[11]", "result": "< 300", "unit": "nM"},
      {"measurement": "GI50", "setting": "[12]", "result": "≥ 1000", "unit": "nM"},
      {"measurement": "GI50", "setting": "[13]", "result": "≥ 1000", "unit": "nM"},
      {"measurement": "GI50", "setting": "lymphoma cell line SR", "result": "< 300", "unit": "nM"}
    ]},
    {"smiles": "CCc1c2c(nc3ccc(O)cc13)-c1cc3c(c(=O)n1C2)COC(=O)[C@]3(O)CC", "note": "[SN-38, reference compound]", "values": [
      {"measurement": "Rate of inhibition of growth (%)", "setting": "[1]; SN-38 1 nM", "result": 12, "unit": "%"}
    ]}
  ]
}
